Earlier results in patent US6747011B1, “Antitumor drugs and methods” (A.P. Group, Inc., priority 2003, dated 2004).

Conditions: alkaline and physiological conditions

## COC[C@@H](C[C@H]1O[C@@](O)([C@H](O)[C@@H]2C[C@H](OC)[C@@H](O)CC/C=C(C)/C=C/[C@@H](O[C@@H]3O[C@@H](C)[C@H](OC)[C@@H](O)[C@@H]3O)[C@H](C)/C=C(C)/C=C(C)/C=C(\C)C(=O)O2)[C@H](C)[C@@H](O)[C@H]1C)OC1C[C@](C)(O)[C@@H](O[C@H]2C[C@@H](OC)[C@H](O)[C@@H](C)O2)[C@H](C)O1 (stereo partly shown) [Apoptolidin]
  stability, isomerization to isoapoptolidin: unstable under alkaline and physiological conditions and readily isomerizes to isoapoptolidin
